Test results as given in the supplement of paper PMC10307832.

Tests used:
Test in all cases: relative viability (nuclei count vs DMSO), 5 days (fraction); higher = more cells survive
Bosutinib + Linsitinib = compound: COc1cc(Nc2c(C#N)cnc3cc(OCCCN4CCN(C)CC4)c(OC)cc23)c(Cl)cc1Cl [Bosutinib] + C[C@]1(O)C[C@@H](c2nc(-c3ccc4ccc(-c5ccccc5)nc4c3)c3c(N)nccn32)C1 [Linsitinib] (partner 1 µM)
Method in brief: (§1)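 Five library-drug doses in √10 steps were combined with a fixed anchor-drug dose, or a single drug was given alone, by pin tool to lung cancer cell lines in 1536-well plates the day after seeding. Nuclei were stained and counted after 5 days. Relative viability is the nuclei count in treated wells over that in vehicle wells, taken as the median of duplicate plates.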

Bosutinib + Tozasertib = compound: COc1cc(Nc2c(C#N)cnc3cc(OCCCN4CCN(C)CC4)c(OC)cc23)c(Cl)cc1Cl [Bosutinib] + Cc1cc(Nc2cc(N3CCN(C)CC3)nc(Sc3ccc(NC(=O)C4CC4)cc3)n2)n[nH]1 [Tozasertib] (partner 0.1 µM)
Method in brief: as §1

Bosutinib + Dasatinib = compound: COc1cc(Nc2c(C#N)cnc3cc(OCCCN4CCN(C)CC4)c(OC)cc23)c(Cl)cc1Cl [Bosutinib] + Cc1nc(Nc2ncc(C(=O)Nc3c(C)cccc3Cl)s2)cc(N2CCN(CCO)CC2)n1 [Dasatinib] (partner 0.075 µM)
Method in brief: as §1

Bosutinib + Vorinostat = compound: COc1cc(Nc2c(C#N)cnc3cc(OCCCN4CCN(C)CC4)c(OC)cc23)c(Cl)cc1Cl [Bosutinib] + O=C(CCCCCCC(=O)Nc1ccccc1)NO [Vorinostat] (partner 1 µM)
Method in brief: as §1

Bosutinib + Olaparib = compound: COc1cc(Nc2c(C#N)cnc3cc(OCCCN4CCN(C)CC4)c(OC)cc23)c(Cl)cc1Cl [Bosutinib] + O=C(c1cc(Cc2n[nH]c(=O)c3ccccc23)ccc1F)N1CCN(C(=O)C2CC2)CC1 [Olaparib] (partner 8 µM)
Method in brief: as §1

| Cell Line | relative viability (Bosutinib + Linsitinib; first compound 0.01 µM) | relative viability (Bosutinib + Linsitinib; first compound 0.03162 µM) | relative viability (Bosutinib + Linsitinib; first compound 0.1 µM) | relative viability (Bosutinib + Linsitinib; first compound 1 µM) | relative viability (Bosutinib + Tozasertib; first compound 0.01 µM) | relative viability (Bosutinib + Tozasertib; first compound 0.03162 µM) | relative viability (Bosutinib + Tozasertib; first compound 0.1 µM) | relative viability (Bosutinib + Tozasertib; first compound 1 µM) | relative viability (Bosutinib + Dasatinib; first compound 0.01 µM) | relative viability (Bosutinib + Dasatinib; first compound 0.03162 µM) | relative viability (Bosutinib + Dasatinib; first compound 0.1 µM) | relative viability (Bosutinib + Dasatinib; first compound 1 µM) | relative viability (Bosutinib + Vorinostat; first compound 0.01 µM) | relative viability (Bosutinib + Vorinostat; first compound 0.03162 µM) | relative viability (Bosutinib + Vorinostat; first compound 0.1 µM) | relative viability (Bosutinib + Vorinostat; first compound 1 µM) | relative viability (Bosutinib + Olaparib; first compound 0.01 µM) | relative viability (Bosutinib + Olaparib; first compound 0.03162 µM) | relative viability (Bosutinib + Olaparib; first compound 0.1 µM) | relative viability (Bosutinib + Olaparib; first compound 1 µM) |
| --- | --- | --- | --- | --- | --- | --- | --- | --- | --- | --- | --- | --- | --- | --- | --- | --- | --- | --- | --- | --- |
| 201T | 1.08 | 0.987 | 1.02 | 0.966 | 0.92 | 0.913 | 0.951 | 0.713 | 0.612 | 0.571 | 0.57 | 0.544 | 0.941 | 1.04 | 1 | 0.894 | 0.829 | 0.884 | 0.888 | 0.76 |
| A549 | 0.676 | 0.624 | 0.55 | 0.499 |  |  |  |  |  |  |  |  |  |  |  |  | 0.52 | 0.447 | 0.357 | 0.286 |
| A-427 | 1.1 | 1.13 | 1.21 | 1.02 | 0.231 | 0.227 | 0.217 | 0.194 | 0.767 | 0.843 | 0.665 | 0.732 | 0.87 | 0.888 | 0.833 | 0.846 | 0.73 | 0.764 | 0.742 | 0.68 |
| ABC-1 | 0.858 | 0.931 | 0.647 | 0.359 | 0.217 | 0.168 | 0.144 | 0.177 | 0.548 | 0.605 | 0.65 | 0.488 | 1.18 | 1.08 | 1.32 | 1.14 | 0.531 | 0.964 | 0.743 | 0.46 |
| BEN | 0.981 | 0.798 | 1.01 | 0.604 | 0.499 | 0.439 | 0.48 | 0.539 | 0.315 | 0.339 | 0.344 | 0.368 | 0.557 | 0.56 | 0.654 | 0.514 | 1.04 | 1.05 | 1.04 | 0.735 |
| CAL-12T | 0.739 | 0.932 | 0.891 | 0.71 | 0.32 | 0.316 | 0.322 | 0.318 | 0.383 | 0.426 | 0.417 | 0.467 | 0.756 | 0.773 | 0.664 | 0.528 | 0.704 | 0.665 | 0.64 | 0.766 |
| COR-L23 | 1 | 0.96 | 0.895 | 0.887 | 0.195 | 0.236 | 0.194 | 0.198 | 0.551 | 0.537 | 0.501 | 0.619 | 0.535 | 0.553 | 0.431 | 0.561 | 0.341 | 0.353 | 0.348 | 0.309 |
| COR-L 105 | 0.948 | 1.21 | 0.857 | 0.59 | 0.344 | 0.371 | 0.325 | 0.308 | 0.383 | 0.363 | 0.397 | 0.353 | 0.861 | 0.844 | 0.828 | 0.624 | 0.677 | 0.743 | 0.844 | 0.603 |
| ChaGo-K-1 |  |  |  |  | 0.22 | 0.254 | 0.224 | 0.213 | 0.662 | 0.56 | 0.637 | 0.6 | 0.808 | 0.847 | 0.792 | 0.789 | 0.432 | 0.458 | 0.401 | 0.435 |
| EKVX | 0.974 | 0.982 | 1 | 0.539 | 0.373 | 0.379 | 0.355 | 0.236 | 0.549 | 0.505 | 0.611 | 0.491 | 0.645 | 0.73 | 0.747 | 0.629 | 0.925 | 0.86 | 0.876 | 0.628 |
| HCC-44 | 0.696 | 0.619 | 0.674 | 0.559 | 1.07 | 1.18 | 1.09 | 0.685 |  |  |  |  | 1.08 | 1.11 | 1.06 | 1.16 | 0.981 | 0.923 | 0.978 | 1.04 |
| NCI-H522 |  |  |  |  | 0.564 | 0.504 | 0.604 | 0.485 | 0.89 | 0.691 | 0.794 | 0.979 | 0.873 | 0.88 | 0.892 | 0.783 | 0.616 | 0.645 | 0.735 | 0.619 |
| NCI-H1650 |  |  |  |  | 0.344 | 0.407 | 0.36 | 0.295 | 0.357 | 0.317 | 0.375 | 0.457 | 0.717 | 0.623 | 0.529 | 0.41 | 0.705 | 0.717 | 0.632 | 0.565 |
| NCI-H1703 | 0.804 | 0.932 | 0.587 | 0.388 |  |  |  |  |  |  |  |  |  |  |  |  | 0.371 | 0.471 | 0.311 | 0.26 |
| NCI-H1792 | 0.638 | 0.525 | 0.586 | 0.449 |  |  |  |  | 0.805 | 0.796 | 0.875 | 0.781 |  |  |  |  | 0.525 | 0.312 | 0.548 | 0.273 |
| NCI-H2170 |  |  |  |  | 0.749 | 0.758 | 0.683 | 0.632 | 0.559 | 0.583 | 0.556 | 0.608 | 0.882 | 0.832 | 0.891 | 0.774 | 0.529 | 0.571 | 0.539 | 0.499 |
| NCI-H2342 |  |  |  |  | 0.51 | 0.449 | 0.526 | 0.517 | 0.289 | 0.305 | 0.317 | 0.344 | 0.779 | 0.787 | 0.859 | 0.828 | 0.419 | 0.379 | 0.464 | 0.432 |
